For one experiment, the target named is Spike RBD (SARS-CoV-2) (UniProt P0DTC2). Conditions: cited from earlier work.
The target in the next experiment is RBD. The settings on record: binding to RBD; cited from earlier work.
Another experiment addresses SARS−CoV−2 Spike RBD (Severe acute respiratory syndrome coronavirus 2, UniProt P0DTC2). In words: biochemical. It is filed as binding. The settings on record: KD; SD.

Bridge positions count the residues as written; N and C are the ends. Peptide text beside a SMILES is read from it.

As a reminder, the Kd is the equilibrium constant for the complex coming apart.

“human beta-defensin 2 (from UniProt O15263)”: in the experiment with Spike RBD (SARS-CoV-2), the dissociation constant (Kd) is 300 nM.

For the molecule human β−defensin 2 [hBD−2], at RBD, the Kd was around 300 nM.

The molecule `CC[C@H](C)[C@@H]1NC(=O)[C@H](CO)NC(=O)[C@H](CC(C)C)NC(=O)[C@@H]2CSSC[C@@H](C(=O)NCC(=O)N[C@@H](CCCCN)C(=O)N[C@@H](CCC(N)=O)C(=O)O)NC(=O)[C@H]([C@@H](C)O)NC(=O)[C@@H]3CSSC[C@H](NC(=O)[C@H](CCC(=O)O)NC(=O)[C@H](CC(N)=O)NC(=O)[C@H](CCCCN)NC(=O)[C@H](CC(N)=O)NC(=O)[C@H](Cc4ccccc4)NC(=O)[C@@H]4CCCN4C(=O)[C@@H](NC(=O)CNC(=O)[C@H](Cc4ccccc4)NC(=O)CN)CSSC[C@H](NC(=O)[C@H](Cc4ccccc4)NC(=O)CNC(=O)[C@H](Cc4ccccc4)NC(=O)[C@H](CCCCN)NC(=O)[C@H](CCCNC(=N)N)NC(=O)CNC1=O)C(=O)N[C@@H](C)C(=O)NCC(=O)N1CCC[C@H]1C(=O)N[C@@H](CC(C)C)C(=O)N[C@@H](CCCNC(=N)N)C(=O)N[C@@H](C)C(=O)N[C@@H]([C@@H](C)O)C(=O)N3)C(=O)N[C@@H](Cc1c[nH]cn1)C(=O)N[C@@H](C)C(=O)N[C@@H](Cc1c[nH]cn1)C(=O)N2` [rE8K] (H-GFGCPFNKNECHAHCLSIGRKFGFCAGPLRATCTCGKQ-OH; disulfide 4-25, 11-33, 15-35) gave a Kd on SARS−CoV−2 Spike RBD of 1900 ± 570 nM.

The values are drawn from article PMC8304516, “A Fungal Defensin Targets the SARS−CoV−2 Spike Receptor−Binding Domain” (Journal of Fungi, 2021).
